Laboratory results as given in patent publication US6605595B1, “Avermectin derivatives” (The Kitasato Institute, priority 1999, dated 2003).

Key:
Assay type in all cases: in vivo
Caenorhabditis elegans = test: Antiparasitic activity against Caenorhabditis elegans, 96 well microplate (MIC); details: 20° C., observed after 24 and 48 hours
Text: (§1) As model insects for simple determination of antiparasitic and insecticidal activities, those insects are desired which can be easily obtained and bred in laboratories, and have no pathogenicity to a human. Caenorhabditis elegans, an unparasitic eelworm widely used in experiments of genetics, was used as a typical steam worm, and Artemia salina used as feed for tropical fish and named Brine shrimp, was used instead of insects.
Escherichia. coli for the feed of Caenorhabditis elegans (mutant having uracil requirement) was inoculated in a seed medium for E. coli to which a small amount of uracil was added, and cultured with shaking at 27° C. for 1 day. A petri dish of 6 cm diameter was filled with 10 ml of an agar medium for eelworm proliferation, and the medium was solidified. Then 0.5 ml of the culture of E. coli was spread over the medium in the dish, and the dish was incubated at 37° C. to proliferate E. coli. A piece of the agar was collected with a platinum loop from a petri dish in which Caenorhabditis elegans successfully proliferated, and inoculated in petri dishes in which E. coli was proliferated. The petri dishes were incubated at 20° C. to proliferate Caenorhabditis elegans. Since the life of eelworm is about 2 weeks, subculture was carried out every once a week. The eelworms grown with spread on the surface of the petri dish after 3 to 5 days from subculture were used for the experiments.
The agar medium for eelworm proliferation was prepared by mixing the solutions in the following proportion: Solution A: 100 ml, Solution B: 0.1 ml, Solution C: 0.05 ml, Solution D: 0.1 ml and Solution E: 2.5 ml (without pH adjustment), and dispensing each 10 ml portion into petri dishes of 60×15 mm.
In distilled water, 2.0% of bact-trypton (DIFCO Co.), 0.55% of sodium chloride and 0.001% of uracil (SIGMA Co., pH 7.4) were dissolved, and the solution was sterilized in an autoclave at 121° C. for 20 minutes.
(§2) Each well of a 96 well microplate was filled with the solution of the test compound (methanol as a solvent), and the solvent was removed using a vacuum pump, then 250 μl of the assay medium was added to each wells (the assay medium was prepared by dissolving 7.5 mM sodium hydrogencarbonate, 7.5 mM potassium chloride, 7.5 mM calcium chloride dihydrate and 7.5 mM magnesium sulfate heptahydrate in distilled water and adding 0.01% of lecithin thereto), and then the microplate was shaken using a microplate mixer for 15 minutes. To each well, a few individuals of Caenorhabditis elegans were added by softly rubbing the surface of the agar using a toothpick, or a few individuals of Artemia salina were added together with 50 μl of the buffer. The microplate was incubated at 20° C., and then the insects were observed after 24 and 48 hours under a microscope (magnification of 40×). The results were compared to those obtained without addition of the test compound, and evaluated by 4 grades.
(§3) The evaluation results were shown by indications of 4 grades from 0 to 3.
(§4) 1: A little week movements
(§5) Of the 4 grades, Indications 3 and 2 were judged as effective, and Indications 1 and 0 as ineffective. In Table 9, the values for each compound are minimum inhibitory concentrations (MIC) which were required to give Indication 2 (or 3) for Caenorhabditis elegans or Artemia salina. In Table 9, Caenorhabditis elegans and Artemia salina are abbreviated as C.E. and A.S., respectively.

Artemia salina = test: Insecticidal model activity against Artemia salina (brine shrimp), 96 well microplate (MIC); details: 20° C., observed after 24 and 48 hours
Text: as §1
To a buffer for Artemia salina (obtained by dissolving 0.24% of Tris, 2.57% of sodium chloride, 0.47% of magnesium chloride, 0.07% of potassium chloride, 0.02% of sodium carbonate, 0.64% of magnesium sulfate and 0.11% of calcium chloride in distilled water and adjusting the pH to 7.1 with hydrochloric acid), dried eggs of Artemia salina [Tetra Brine Shrimp Eggs, Warner Lambert Co.] were added. The noprius larvae 1 or 2 days after hatching were used for the experiments.
as §2, §3, §4, §5

[1] = system: Adult Ctenocephalides felis; test: Test on cat fleas / oral absorption; details: after 24 hours
Protocol: Test on cat fleas/oral absorption
Test animals: Adult Ctenocephalides felis
Solvent: Dimethylsulfoxide (DMSO)
20 μl of this formulation are added to 4 ml of citrated cow's blood and stirred.
20 starved adult fleas (of “Georgi” species of Ctenocephalides felis) are introduced into a chamber (of a diameter of 5 cm) which is sealed with gauze at the top and bottom. A metal cylinder, whose base is sealed with parafilm, is placed on the chamber. […] Whereas the blood is heated to 37° C. a temperature of 25° C. is adjusted in the region of the flea chambers. Controls are mixed with the same volume of DMSO without the addition of any of the compounds. The test are repeated three times.
After 24 hours the mortality is determined in %.

SMILES | C.E. minimum inhibitory concentration (MIC) required to give Indication 2 (or 3) (Caenorhabditis elegans) | A.S. minimum inhibitory concentration (MIC) required to give Indication 2 (or 3) (Artemia salina) | mortality of fleas ([1]; 10 ppm in citrated cow's blood) | mortality of fleas ([1]; 100 ppm in citrated cow's blood)
CCC(C)C1OC2(C=CC1C)CC1CC(CC=C(C)C(OC3CC(OC)C(OC4CC(OC)C(=CC=O)C(C)O4)C(C)O3)C(C)C=CC=C3COC4C(O)C(C)=CC(C(=O)O1)C34O)O2 (centres unmarked) [Compound 8] | 0.01 µg/mL | 0.01 µg/mL |  | 
CCC(C)C1OC2(C=CC1C)CC1CC(CC=C(C)C(OC3CC(OC)C(OC4CC(OC)C(=CCNC)C(C)O4)C(C)O3)C(C)C=CC=C3COC4C(O)C(C)=CC(C(=O)O1)C34O)O2 (centres unmarked) [Compound 11] | 0.05 µg/mL | 0.01 µg/mL |  | 
CCC(C)C1OC2(C=CC1C)CC1CC(CC=C(C)C(OC3CC(OC)C(OC4CC(OC)C(=CC=NOC)C(C)O4)C(C)O3)C(C)C=CC=C3COC4C(O)C(C)=CC(C(=O)O1)C34O)O2 (single isomer, unassigned) [Compound 13] | 0.01 µg/mL | 0.002 µg/mL |  | 
CCC(C)C1OC2(C=CC1C)CC1CC(CC=C(C)C(OC3CC(OC)C(OC4CC(OC)C(=CC(=O)OC)C(C)O4)C(C)O3)C(C)C=CC=C3COC4C(O[Si](C)(C)C(C)(C)C)C(C)=CC(C(=O)O1)C34O)O2 (centres unmarked) [Compound 6] | >100 µg/mL | ≧100 μg/ml |  | 
CCC(C)C1OC2(C=CC1C)CC1CC(CC=C(C)C(OC3CC(OC)C(OC4CC(OC)C(=CC=NO)C(C)O4)C(C)O3)C(C)C=CC=C3COC4C(O)C(C)=CC(C(=O)O1)C34O)O2 (single isomer, unassigned) [Compound 9] | 0.01 µg/mL | 0.002 µg/mL |  | 
CCC(C)C1OC2(C=CC1C)CC1CC(CC=C(C)C(OC3CC(OC)C(OC4CC(OC)C(=CC(=O)O)C(C)O4)C(C)O3)C(C)C=CC=C3COC4C(O)C(C)=CC(C(=O)O1)C34O)O2 (centres unmarked) [Compound 25] | 0.05 µg/mL | 0.01 µg/mL | 69% | 100%
C=CCOC(=O)C=C1C(C)OC(OC2C(C)OC(OC3C(C)=CCC4CC(CC5(C=CC(C)C(C(C)CC)O5)O4)OC(=O)C4C=C(C)C(O)C5OCC(=CC=CC3C)C45O)CC2OC)CC1OC (centres unmarked) [Compound 20] | 0.01 µg/mL | 0.002 µg/mL |  | 
CCC(C)C1OC2(C=CC1C)CC1CC(CC=C(C)C(OC3CC(OC)C(OC4CC(OC)C(=CCO)C(C)O4)C(C)O3)C(C)C=CC=C3COC4C(O[Si](C)(C)C(C)(C)C)C(C)=CC(C(=O)O1)C34O)O2 (centres unmarked) [Compound 3] | 100 µg/mL | 20 µg/mL |  | 
CCC(C)C1OC2(C=CC1C)CC1CC(CC=C(C)C(OC3CC(OC)C(OC4CC(OC)C(=CC=NOC)C(C)O4)C(C)O3)C(C)C=CC=C3COC4C(O)C(C)=CC(C(=O)O1)C34O)O2 (single isomer, unassigned) [Compound 12] | 0.01 µg/mL | 0.01 µg/mL |  | 
CCC(C)C1OC2(C=CC1C)CC1CC(CC=C(C)C(OC3CC(OC)C(OC4CC(OC)C(=CC=NO)C(C)O4)C(C)O3)C(C)C=CC=C3COC4C(O)C(C)=CC(C(=O)O1)C34O)O2 (single isomer, unassigned) [Compound 10] | 0.01 µg/mL | 0.002 µg/mL |  | 
CCOC(=O)C=C1C(C)OC(OC2C(C)OC(OC3C(C)=CCC4CC(CC5(C=CC(C)C(C(C)CC)O5)O4)OC(=O)C4C=C(C)C(O[Si](C)(C)C(C)(C)C)C5OCC(=CC=CC3C)C45O)CC2OC)CC1OC (centres unmarked) [Compound 1] | 100 µg/mL | 100 µg/mL |  | 
CCC(C)C1OC2(C=CC1C)CC1CC(CC=C(C)C(OC3CC(OC)C(OC4CC(OC)C(=CCOC(=O)C5CCCN5C(=O)OC(C)(C)C)C(C)O4)C(C)O3)C(C)C=CC=C3COC4C(O)C(C)=CC(C(=O)O1)C34O)O2 (centres unmarked) [Compound 30] | 0.05 µg/mL | 0.01 µg/mL |  | 
CCC(C)C1OC2(C=CC1C)CC1CC(CC=C(C)C(OC3CC(OC)C(OC4CC(OC)C(=CC=O)C(C)O4)C(C)O3)C(C)C=CC=C3COC4C(O[Si](C)(C)C(C)(C)C)C(C)=CC(C(=O)O1)C34O)O2 (centres unmarked) [Compound 5] | 100 µg/mL | 100 µg/mL |  | 
CCC(C)C1OC2(C=CC1C)CC1CC(CC=C(C)C(OC3CC(OC)C(OC4CC(OC)C(=CC=NNC(N)=O)C(C)O4)C(C)O3)C(C)C=CC=C3COC4C(O)C(C)=CC(C(=O)O1)C34O)O2 (centres unmarked) [Compound 22] | 0.01 µg/mL | 0.0005 µg/mL |  | 
CCC(C)C1OC2(C=CC1C)CC1CC(CC=C(C)C(OC3CC(OC)C(OC4CC(OC)C(=CCOC(=O)c5ccc(Cl)nc5)C(C)O4)C(C)O3)C(C)C=CC=C3COC4C(O)C(C)=CC(C(=O)O1)C34O)O2 (centres unmarked) [Compound 34] | 0.002 µg/mL | 0.002 µg/mL |  | 
CCC(C)C1OC2(CC(=O)C1C)CC1CC(CC=C(C)C(OC3CC(OC)C(OC4CC(OC)C(=CC(=O)OC)C(C)O4)C(C)O3)C(C)C=CC=C3COC4C(O)C(C)=CC(C(=O)O1)C34O)O2 (centres unmarked) [Compound 41] | 0.01 µg/mL | 0.01 µg/mL |  | 
CCC(C)C1OC2(C=CC1C)CC1CC(CC=C(C)C(OC3CC(OC)C(OC4CC(OC)C(=CCN)C(C)O4)C(C)O3)C(C)C=CC=C3COC4C(O[Si](C)(C)C(C)(C)C)C(C)=CC(C(=O)O1)C34O)O2 (centres unmarked) [Compound 14] | 100 µg/mL | 5 µg/mL |  | 
CCC(C)C1OC2(C=CC1C)CC1CC(CC=C(C)C(OC3CC(OC)C(OC4CC(OC)C(=CCOC(=O)c5ccncc5)C(C)O4)C(C)O3)C(C)C=CC=C3COC4C(O[Si](C)(C)C(C)(C)C)C(C)=CC(C(=O)O1)C34O)O2 (centres unmarked) [Compound 17] | 100 µg/mL | 100 µg/mL |  | 
